According to patent publication US20060005464A1, “Alkyl ethanolamine and biocide combination for hydrocarbon based fuels” (priority 2004, published 2006):

Legend:
Assay type in all cases: cell-based
[1] = system: Mycobacterium smegmatis (ATCC # 19420); assay: End-point optical density of Mycobacterium smegmatis with N-alkyl alkanolamines (590 nm, 72 h); details: for end-point optical density: 590 nm, after 72 hours, pH 8.5, tetrazolium dye
[2] = system: Pseudomonas aeruginosa (ATCC 10145); assay: Maximum growth slope of Pseudomonas aeruginosa with Proxel DB20 (BIT) plus alkanolamine; details: pH 8.5, TSB, 24 hour
Procedure: A culture of Pseudomonas aeruginosa (ATCC 10145) at pH=8.5 in TSB (trypticase soy broth) media was prepared. The biocide Proxel DB20 (20% suspension of benzoisothiazolone (BIT) in water), as sold by Avecia, was added at varying concentrations in combination with 1000 ppm or 2000 ppm of the alkanolamines N-butylaminoethanol (BAE), 2-amino-2-methyl-1-propanol (AMP), dibutylaminoethanol (DBAE) or n-octylaminoethanol (OAE). Optical density measurements were taken every 15 minutes over a 24 hour time period (total of 96 data points). The maximum growth slope was calculated by taking the 10 contiguous data points that result in the highest growth slope (units of OD per time) over a 24 hour period. Those 10 data points were subjected to a least squares linear fit to calculate the maximum growth slope.

[3] = system: Aureobasidium pullulans (ATCC 12536); assay: End-point optical density of Aureobasidium pullulans with MIT/CMIT plus alkanolamine; details: SAB media pH 8.5
Procedure: The impact of N-alkylalkanolamines on the control of the bacterial species Aureobasidium pullulans (ATCC 12536), a bacteria common in water-oil systems, was evaluated by measuring optical absorbance of samples treated with various concentrations of N-alkyl alkanolamines. […] SAB media at pH 8.5 (Tris buffer) was employed. Table 8 summarizes measurement of end-point optical density after 24 hours and 48 hours: […]

[4] = system: Mycobacterium smegmatis (ATCC # 19420); assay: End-point optical density and MIC, Mycobacterium smegmatis (660 nm, 48 h); details: for MIC (estimate of the concentration range in which the amine starts to inhibit growth): 48 hours; for end-point optical density: 660 nm, after 48 hours
Procedure: (§1) The impact of N-alkylalkanolamines on the control of the bacterial species Mycobacterium smegmatis (ATCC # 19420), a bacteria common in water-oil systems, was evaluated by measuring optical absorbance of samples treated with various alkyl ethanolaminesis DCHA=Dicyclohexylamine, OAE=Octylaminoethanol, ODEA=Octyldiethanolamine. Bacterial concentration was monitored indirectly via optical absorbance at 660 nm. The values reported are end-point optical densities in milliOD units after 48 hours. The media consisted of a standardized solution of clear nutrient broth (Middlebrook 7H10 with OADC supplement), amine, buffer (Tris) and water. The pH was adjusted initially to 8.5 with Tris buffer. The first column in the Table gives the amine concentration in ppm. The final two columns give data for cells that also contained 2 grams per liter of boric acid. In all cases, the values are averages of at least three replicates. The final row of the Table gives an estimate of the concentration range in which the amine in question starts to inhibit the growth of this bacterial species.

[5] = system: Mycobacterium marinum (ATCC # 19420); assay: End-point optical density and MIC, Mycobacterium marinum (660 nm, 72 h); details: pH 8.5; for MIC (estimate of the concentration range in which the amine starts to inhibit growth): 72 hours; for end-point optical density: 660 nm, after 72 hours
Procedure: as §1
The impact of the N-alkylalkanolamines of Example 6 on the control of the bacterial species Mycobacterium marinum (ATCC # 19420), bacteria common in water-oil systems, was evaluated as described above in Example 6. Bacterial concentration in the experimental media was monitored indirectly via optical absorbance at 660 nm. The values reported are end-point optical densities in milliOD units after 72 hours. The media consisted of a standardized solution of clear nutrient broth (Middlebrook 7H10 with OADC supplement), amine, buffer (Tris) and water. The pH was adjusted initially to 8.5 with Tris buffer. The first column in the Table gives the amine concentration in ppm. In all cases, the values are averages of at least three replicates. The final row of the Table gives an estimate of the concentration range in which the amine in question starts to inhibit the growth of this bacterial species.

[6] = system: Pseudomonas Aeruginosa (ATCC27853); assay: Microtiter plate growth of Pseudomonas Aeruginosa with amines and GROTAN; details: for growth of Pseudomonas Aeruginosa (Table 1 entry): pH 8.5, 24 hours
[7] = amine 1000 ppm plus BIT 150 ppm
[8] = amine 1000 ppm plus BIT 250 ppm
[9] = amine 1000 ppm plus BIT 500 ppm
[10] = amine 2000 ppm plus BIT 150 ppm
[11] = amine 2000 ppm plus BIT 250 ppm
[12] = amine 2000 ppm plus BIT 500 ppm
[13] = amine 500 ppm plus 2 grams per liter of boric acid
[14] = amine 1000 ppm plus 2 grams per liter of boric acid
[15] = amine 2000 ppm plus 2 grams per liter of boric acid
[16] = with 2 grams per liter of boric acid
[17] = amine 2000 ppm plus GROTAN 100 ppm
[18] = amine 2000 ppm plus GROTAN 250 ppm
[19] = amine 2000 ppm plus GROTAN 500 ppm
[20] = amine 2000 ppm plus GROTAN 1000 ppm
[21] = amine 2000 ppm plus GROTAN 2000 ppm
[22] = amine 4000 ppm plus GROTAN 100 ppm
[23] = amine 4000 ppm plus GROTAN 250 ppm
[24] = amine 4000 ppm plus GROTAN 500 ppm
[25] = amine 4000 ppm plus GROTAN 1000 ppm
[26] = amine 4000 ppm plus GROTAN 2000 ppm

Row | Structure (SMILES) | end-point optical density ([1]; amine 470 ppm) | end-point optical density ([1]; amine 940 ppm) | end-point optical density ([1]; amine 1880 ppm) | end-point optical density ([1]; amine 3750 ppm) | end-point optical density ([1]; amine 7500 ppm) | maximum growth slope [2, 7] | maximum growth slope [2, 8] | maximum growth slope [2, 9] | maximum growth slope ([2]; amine 1000 ppm, BIT 0 ppm) | MIC (estimate of the concentration range in which the amine starts to inhibit growth) ([4]; pH 8.5, no boric acid) | end-point optical density ([4]; amine 500 ppm, pH 8.5) | end-point optical density ([4]; amine 1000 ppm, pH 8.5) | end-point optical density ([4]; amine 1500 ppm, pH 8.5) | end-point optical density ([4]; amine 2000 ppm, pH 8.5) | MIC (estimate of the concentration range in which the amine starts to inhibit growth) [5] | end-point optical density ([5]; amine 400 ppm) | end-point optical density ([5]; amine 800 ppm) | end-point optical density ([5]; amine 1200 ppm) | end-point optical density ([5]; amine 2000 ppm) | end-point optical density ([5]; amine 4000 ppm) | further results
1 | CCCCN(CCO)CCCC [DBAE, dibutylaminoethanol] | 2000 milliOD | 2000 milliOD | 2000 milliOD | 1900 milliOD | 1200 milliOD | 0.221 OD per time | 0.255 OD per time | 0.143 OD per time | 0.228 OD per time | – | – | – | – | – | – | – | – | – | – | – | maximum growth slope [2, 10]: 0.084 OD per time; maximum growth slope [2, 11]: 0.104 OD per time; maximum growth slope [2, 12]: 0.000 OD per time; maximum growth slope ([2]; amine 2000 ppm, BIT 0 ppm): 0.114 OD per time; end-point optical density ([3]; amine 1000 ppm plus 50 ppm MIT/CMIT, 24 hours): 0.3; end-point optical density ([3]; amine 1000 ppm plus 50 ppm MIT/CMIT, 48 hours): 0.4; end-point optical density ([3]; amine 2000 ppm plus 50 ppm MIT/CMIT, 24 hours): 0.2; end-point optical density ([3]; amine 2000 ppm plus 50 ppm MIT/CMIT, 48 hours): 0.2
2 | CCCCCCCCNCCO [OAE, n-octylaminoethanol] | 0 milliOD | 0 milliOD | 0 milliOD | 0 milliOD | 0 milliOD | 0.000 OD per time | 0.000 OD per time | 0.000 OD per time | 0.000 OD per time | <500 ppm | 0.184 milliOD | 0.149 milliOD | 0.213 milliOD | 0.226 milliOD | 1200-2000 ppm | 0.4 milliOD | 0.4 milliOD | 0.4 milliOD | 0 milliOD | 0 milliOD | end-point optical density [4, 13]: 0.100 milliOD; end-point optical density [4, 14]: 0.121 milliOD; end-point optical density [4, 15]: 0.015 milliOD; end-point optical density ([4]; amine 4000 ppm, pH 8.5): 0.205 milliOD; MIC (estimate of the concentration range in which the amine starts to inhibit growth) [4, 16]: <500 ppm; effectiveness against Mycobacteria ([1]; compared with AMP, conclusion from Table 5): markedly more effective than AMP; maximum growth slope [2, 10]: 0.000 OD per time; maximum growth slope [2, 11]: 0.000 OD per time; maximum growth slope [2, 12]: 0.000 OD per time; maximum growth slope ([2]; amine 2000 ppm, BIT 0 ppm): 0.000 OD per time; end-point optical density ([3]; amine 200 ppm plus 50 ppm MIT/CMIT, 24 hours): 0.1; end-point optical density ([3]; amine 200 ppm plus 50 ppm MIT/CMIT, 48 hours): 0.1; end-point optical density ([3]; amine 500 ppm plus 50 ppm MIT/CMIT, 24 hours): 0; end-point optical density ([3]; amine 500 ppm plus 50 ppm MIT/CMIT, 48 hours): 0
3 | CC(C)(C)NCCO [TBAE, tert-butylaminoethanol] | – | – | – | – | – | – | – | – | – | – | – | – | – | – | – | – | – | – | – | – | growth of Pseudomonas Aeruginosa (Table 1 entry) [6, 17]: 0.72; growth of Pseudomonas Aeruginosa (Table 1 entry) [6, 18]: 0.69; growth of Pseudomonas Aeruginosa (Table 1 entry) [6, 19]: 0.83; growth of Pseudomonas Aeruginosa (Table 1 entry) [6, 20]: 0.30; growth of Pseudomonas Aeruginosa (Table 1 entry) [6, 21]: 0.35; growth of Pseudomonas Aeruginosa (Table 1 entry) ([6]; amine 2000 ppm, GROTAN 0 ppm): 0.67; growth of Pseudomonas Aeruginosa (Table 1 entry) [6, 22]: 0.58; growth of Pseudomonas Aeruginosa (Table 1 entry) [6, 23]: 0.59; growth of Pseudomonas Aeruginosa (Table 1 entry) [6, 24]: 0.34; growth of Pseudomonas Aeruginosa (Table 1 entry) [6, 25]: 0.28; growth of Pseudomonas Aeruginosa (Table 1 entry) [6, 26]: 0.36; growth of Pseudomonas Aeruginosa (Table 1 entry) ([6]; amine 4000 ppm, GROTAN 0 ppm): 0.55
4 | C1CCC(NC2CCCCC2)CC1 [DCHA, Dicyclohexylamine, reference compound] | – | – | – | – | – | – | – | – | – | 1500-2000 ppm | 1.02 milliOD | 0.802 milliOD | 0.995 milliOD | 0.268 milliOD | >4000 ppm | 0.6 milliOD | 0.6 milliOD | 0.5 milliOD | 0.4 milliOD | 0.4 milliOD | end-point optical density [4, 13]: 1.125 milliOD; end-point optical density [4, 14]: 0.855 milliOD; end-point optical density [4, 15]: 0.085 milliOD; MIC (estimate of the concentration range in which the amine starts to inhibit growth) [4, 16]: 1000-2000 ppm
5 | CCCCCCCCN(CCO)CCO [ODEA, Octyldiethanolamine] | – | – | – | – | – | – | – | – | – | 500-1000 ppm | 0.847 milliOD | 0.117 milliOD | 0.260 milliOD | 0.225 milliOD | 1200-2000 ppm | 0.6 milliOD | 0.4 milliOD | 0.4 milliOD | 0.1 milliOD | 0 milliOD | –
6 | CCCCN(CCO)CCO [BDEA, butyldiethanolamine] | – | – | – | – | – | – | – | – | – | – | – | – | – | – | – | – | – | – | – | – | growth of Pseudomonas Aeruginosa (Table 1 entry) [6, 17]: 0.52; growth of Pseudomonas Aeruginosa (Table 1 entry) [6, 18]: 0.72; growth of Pseudomonas Aeruginosa (Table 1 entry) [6, 19]: 0.79; growth of Pseudomonas Aeruginosa (Table 1 entry) [6, 20]: 0.32; growth of Pseudomonas Aeruginosa (Table 1 entry) [6, 21]: 0.33; growth of Pseudomonas Aeruginosa (Table 1 entry) ([6]; amine 2000 ppm, GROTAN 0 ppm): 0.67; growth of Pseudomonas Aeruginosa (Table 1 entry) [6, 22]: 0.67; growth of Pseudomonas Aeruginosa (Table 1 entry) [6, 23]: 0.51; growth of Pseudomonas Aeruginosa (Table 1 entry) [6, 24]: 0.30; growth of Pseudomonas Aeruginosa (Table 1 entry) [6, 25]: 0.28; growth of Pseudomonas Aeruginosa (Table 1 entry) [6, 26]: 0.33; growth of Pseudomonas Aeruginosa (Table 1 entry) ([6]; amine 4000 ppm, GROTAN 0 ppm): 0.45; enhancement in the biocidal effect of GROTAN ([6]; conclusion from Table 1): provide an enhancement in the biocidal effect of GROTAN®
